Results published in US12522598B2, “3-(2-(heteroaryl)-pyridin-4-yl)-5-(trifluoromethyl)-1,2,4-oxadiazole derivatives as HDAC6 inhibitors” (ORYZON GENOMICS, S.A., priority 2019, dated 2026).
Where a name gives a salt, the structure may show the parent alone.

Target: T1, HDAC6 (Homo sapiens, UniProt Q9UBN7)
T1 construct: purchased BPS Bioscience 50006
T1 sequence (Q9UBN7 1-1215): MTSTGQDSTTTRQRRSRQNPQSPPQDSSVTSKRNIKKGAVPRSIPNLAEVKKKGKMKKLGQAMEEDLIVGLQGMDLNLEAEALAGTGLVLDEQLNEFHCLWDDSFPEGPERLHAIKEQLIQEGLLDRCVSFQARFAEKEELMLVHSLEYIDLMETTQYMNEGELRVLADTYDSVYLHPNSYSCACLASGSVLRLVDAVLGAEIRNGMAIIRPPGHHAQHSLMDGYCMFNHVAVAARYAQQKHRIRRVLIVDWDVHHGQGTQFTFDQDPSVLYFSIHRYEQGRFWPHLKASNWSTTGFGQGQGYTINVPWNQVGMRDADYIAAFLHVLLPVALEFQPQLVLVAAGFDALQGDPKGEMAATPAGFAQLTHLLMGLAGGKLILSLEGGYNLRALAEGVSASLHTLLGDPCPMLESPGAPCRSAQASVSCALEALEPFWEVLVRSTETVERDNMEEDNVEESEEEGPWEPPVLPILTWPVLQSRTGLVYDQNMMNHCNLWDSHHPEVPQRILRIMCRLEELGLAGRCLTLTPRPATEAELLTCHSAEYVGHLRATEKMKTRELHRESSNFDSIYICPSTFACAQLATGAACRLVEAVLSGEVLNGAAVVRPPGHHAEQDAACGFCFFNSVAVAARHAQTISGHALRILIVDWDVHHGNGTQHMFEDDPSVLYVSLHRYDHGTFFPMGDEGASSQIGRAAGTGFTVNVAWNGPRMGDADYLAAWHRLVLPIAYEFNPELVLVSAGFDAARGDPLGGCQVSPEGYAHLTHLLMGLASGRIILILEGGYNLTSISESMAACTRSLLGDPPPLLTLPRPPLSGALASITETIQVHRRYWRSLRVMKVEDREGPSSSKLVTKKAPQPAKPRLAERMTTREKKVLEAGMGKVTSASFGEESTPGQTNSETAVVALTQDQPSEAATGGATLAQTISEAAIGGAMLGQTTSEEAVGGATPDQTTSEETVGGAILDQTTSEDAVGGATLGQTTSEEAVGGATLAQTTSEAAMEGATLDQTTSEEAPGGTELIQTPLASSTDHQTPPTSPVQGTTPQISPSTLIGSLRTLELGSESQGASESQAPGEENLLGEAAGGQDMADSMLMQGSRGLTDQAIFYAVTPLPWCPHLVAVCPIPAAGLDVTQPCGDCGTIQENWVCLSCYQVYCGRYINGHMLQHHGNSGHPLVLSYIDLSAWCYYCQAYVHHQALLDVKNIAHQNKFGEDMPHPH
Assay: HDAC6 enzyme inhibition assay (fluorimetric)
Assay type: biochemical
Conditions: 3 hours preincubation with enzyme, fraction of positive control; for inhibition at 0.1 µM / HDAC6 % inh @ 0.1 μM: 0.1 μM test compound; for inhibition at 0.1 µM: read-out: HDAC6 % inh @ 0.1 μM; for inhibition at 0.3 µM / HDAC6 % inh @ 0.3 μM: 0.3 μM test compound; for inhibition at 0.3 µM: read-out: HDAC6 % inh @ 0.3 μM; for inhibition at 1 µM: read-out: HDAC6 % inh @ 1 μM
Experimental: A fluorimetric assay was used to determine the biochemical activity of the inhibitors on HDAC6 in 96-Well Half Area Black Microplates (Corning #3686)+TopSeal-A Black Sealing Film (Perkin Elmer #6050173). Test compounds were dissolved in DMSO. Half-log serial dilutions of test compounds were prepared in DMSO and then diluted 1:10 in assay buffer (BPS Bioscience #50031).
2.5 μL of enzyme (BPS Bioscience #50006) was incubated with 2.5 μL of test compounds for 3 hours in assay buffer with 0.1 mg/mL Bovine Serum Albumin (Sigma-Aldrich #A7030) at 21° C. in 22.5 μL total volume. The enzymatic reaction was started with the addition of 2.5 μL of a fluorogenic acetylated peptide substrate (BPS Bioscience #50037). The final concentration of enzyme and substrate in the reaction were 8.8 nM and 9 μM, respectively. After 45 minutes of incubation at 37° C., the addition of 25 μL of a development solution (BPS
Bioscience #50030) releases a fluorophore whose amount is proportional to the amount of the deacetylated product. Fluorescence intensity was measured after 15 minutes incubation at 21° C. with a Tecan Infinite F200 microplate reader (excitation 360 nm-emission 460 nm).
The negative control (background) was represented by the reaction mix in the absence of the enzyme (with 0.1% DMSO), while the positive control of deacetylase activity was obtained in the absence of test compounds (with 0.1% DMSO) after background subtraction. Percentage of inhibition was calculated as a fraction of the positive control.

Row | Compound | inhibition at 0.1 µM [%] | inhibition at 0.3 µM [%] | inhibition at 1 µM (1 μM test compound) [%] | HDAC6 % inh @ 0.1 μM [%] | HDAC6 % inh @ 0.3 μM [%] | HDAC6 % inh @ 1 μM (1 μM test compound) [%]
1 | FC(F)(F)c1nc(-c2ccnc(-c3nn(CC4CCOCC4)c4cccnc34)c2)no1 [Example 1f, 3-(2-(1-((Tetrahydro-2H-pyran-4-yl)methyl)-1H-pyrazolo[4,3-b]pyridin-3-yl)pyridin-4-yl)-5-(trifluoromethyl)-1,2,4-oxadiazole] | 54 | 81 | 94 | – | – | –
2 | COCCn1nc(-c2cc(-c3noc(C(F)(F)F)n3)ccn2)c2nccnc21 [Example 1g, 3-(2-(1-(2-Methoxyethyl)-1H-pyrazolo[3,4-b]pyrazin-3-yl)pyridin-4-yl)-5-(trifluoromethyl)-1,2,4-oxadiazole] | 28 | 56 | 80 | – | – | –
3 | Cn1c(C(=O)N(CCO)CCO)cc2cc(-c3cc(-c4noc(C(F)(F)F)n4)ccn3)ncc21 [Example 1d, N,N-Bis(2-hydroxyethyl)-1-methyl-5-(4-(5-(trifluoromethyl)-1,2,4-oxadiazol-3-yl)pyridin-2-yl)-1H-pyrrolo[2,3-c]pyridine-2-carboxamide] | 79 | 91 | 96 | – | – | –
4 | CN1CCC(CN(C)C(=O)c2cc3cc(-c4cc(-c5noc(C(F)(F)F)n5)ccn4)ncc3n2C)CC1 [Example 1c, N,1-Dimethyl-N-((l-methylpiperidin-4-yl)methyl)-5-(4-(5-(trifluoromethyl)-1,2,4-oxadiazol-3-yl)pyridin-2-yl)-1H-pyrrolo[2,3-c]pyridine-2-carboxamide] | 85 | 94 | 98 | – | – | –
5 | CC1(C)C2CCC1(CS(=O)(=O)O)C(=O)C2.Cn1c(C(=O)N2CC[C@H](O)C2)cc2cc(-c3cc(-c4noc(C(F)(F)F)n4)ccn3)ncc21 [Example 6, (S)-(3-Hydroxypyrrolidin-1-yl)(1-methyl-5-(4-(5-(trifluoromethyl)-1,2,4-oxadiazol-3-yl)pyridin-2-yl)-1H-pyrrolo[2,3-c]pyridin-2-yl)methanone (+) Camphorsulfonate Salt] | – | – | – | 61 | 81 | 91
6 | COCCn1nc(-c2cc(-c3noc(C(F)(F)F)n3)ccn2)c2nccc(Cl)c21 [Example 5, 3-(2-(7-Chloro-1-(2-methoxyethyl)-1H-pyrazolo[4,3-b]pyridin-3-yl)pyridin-4-yl)-5-(trifluoromethyl)-1,2,4-oxadiazole] | 61 | 82 | 94 | – | – | –
7 | CCN(C)C(=O)c1cc2cc(-c3cc(-c4noc(C(F)(F)F)n4)ccn3)ncc2n1C [Example 2b, N-Ethyl-N,1-dimethyl-5-(4-(5-(trifluoromethyl)-1,2,4-oxadiazol-3-yl)pyridin-2-yl)-1H-pyrrolo[2,3-c]pyridine-2-carboxamide hydrochloride] | 89 | 95 | 96 | – | – | –
8 | CN(CC1CC1)C(=O)c1cc2cc(-c3cc(-c4noc(C(F)(F)F)n4)ccn3)ncc2n1C [Example 2, N-(Cyclopropylmethyl)-N,1-dimethyl-5-(4-(5-(trifluoromethyl)-1,2,4-oxadiazol-3-yl)pyridin-2-yl)-1H-pyrrolo[2,3-c]pyridine-2-carboxamide hydrochloride] | 75 | 92 | 96 | – | – | –
9 | COCCN(CCOC)C(=O)c1cc2cc(-c3cc(-c4noc(C(F)(F)F)n4)ccn3)ncc2n1C [Example 2c, N,N-Bis(2-methoxyethyl)-1-methyl-5-(4-(5-(trifluoromethyl)-1,2,4-oxadiazol-3-yl)pyridin-2-yl)-1H-pyrrolo[2,3-c]pyridine-2-carboxamide hydrochloride] | 71 | 91 | 97 | – | – | –
10 | COCCCn1nc(-c2cc(-c3noc(C(F)(F)F)n3)ccn2)c2ncccc21 [Example 1e, 3-(2-(1-(3-Methoxypropyl)-1H-pyrazolo[4,3-b]pyridin-3-yl)pyridin-4-yl)-5-(trifluoromethyl)-1,2,4-oxadiazole] | 68 | 88 | 95 | – | – | –
11 | Cn1c(C(=O)N2CC[C@@H](O)C2)cc2cc(-c3cc(-c4noc(C(F)(F)F)n4)ccn3)ncc21 [Example 2g, (R)-(3-Hydroxypyrrolidin-1-yl)(1-methyl-5-(4-(5-(trifluoromethyl)-1,2,4-oxadiazol-3-yl)pyridin-2-yl)-1H-pyrrolo[2,3-c]pyridin-2-yl)methanone hydrochloride] | 78 | 86 | 97 | – | – | –
12 | CN(C)CCCN(C)C(=O)c1cc2cc(-c3cc(-c4noc(C(F)(F)F)n4)ccn3)ncc2n1C [Example 1a, N-(3-(Dimethylamino)propyl)-N,1-dimethyl-5-(4-(5-(trifluoromethyl)-1,2,4-oxadiazol-3-yl)pyridin-2-yl)-1H-pyrrolo[2,3-c]pyridine-2-carboxamide] | 74 | 91 | – | – | – | –
13 | CN(CCO)C(=O)c1cc2cc(-c3cc(-c4noc(C(F)(F)F)n4)ccn3)ncc2n1C [Example 1b, N-(2-Hydroxyethyl)-N,1-dimethyl-5-(4-(5-(trifluoromethyl)-1,2,4-oxadiazol-3-yl)pyridin-2-yl)-1H-pyrrolo[2,3-c]pyridine-2-carboxamide] | 72 | 88 | 95 | – | – | –
14 | Cn1c(C(=O)N2CCC(O)C2)cc2cc(-c3cc(-c4noc(C(F)(F)F)n4)ccn3)ncc21 (stereo not shown) [Example 2e, (3-Hydroxypyrrolidin-1-yl)(1-methyl-5-(4-(5-(trifluoromethyl)-1,2,4-oxadiazol-3-yl)pyridin-2-yl)-1H-pyrrolo[2,3-c]pyridin-2-yl)methanone hydrochloride] | 78 | 92 | 97 | – | – | –
15 | Cn1c(C(=O)N2CC[C@H](O)C2)cc2cc(-c3cc(-c4noc(C(F)(F)F)n4)ccn3)ncc21 [Example 2h, (S)-(3-Hydroxypyrrolidin-1-yl)(1-methyl-5-(4-(5-(trifluoromethyl)-1,2,4-oxadiazol-3-yl)pyridin-2-yl)-1H-pyrrolo[2,3-c]pyridin-2-yl)methanone hydrochloride] | 65 | 80 | 94 | – | – | –
16 | Cn1c(C(=O)N2CCNCC2)cc2cc(-c3cc(-c4noc(C(F)(F)F)n4)ccn3)ncc21 [Example 4, (1-Methyl-5-(4-(5-(trifluoromethyl)-1,2,4-oxadiazol-3-yl)pyridin-2-yl)-1H-pyrrolo[2,3-c]pyridin-2-yl)(piperazin-1-yl)methanone] | 69 | 86 | 95 | – | – | –
17 | Cn1c(C(=O)N2CCOCC2)cc2cc(-c3cc(-c4noc(C(F)(F)F)n4)ccn3)ncc21 [Example 1, (1-Methyl-5-(4-(5-(trifluoromethyl)-1,2,4-oxadiazol-3-yl)pyridin-2-yl)-1H-pyrrolo[2,3-c]pyridin-2-yl)(morpholino)methanone] | – | – | – | 59 | 87 | –
